The values that follow come from patent US7514582B2, “2′-substituted 1,1′-biphenyl-2-carboxamides, processes for their preparation, their use as medicaments, and pharmaceutical preparations comprising them” (Sanofi-Aventis Deutschland GmbH, priority 1999, dated 2009).

The target in the first assay is T1, Kv1.5 channels from humans (Homo sapiens, UniProt P22460).
T1 construct: expressed in transfected cells; host or cells: Xenopus laevis oocytes injected with in vitro synthesized RNA
T1 sequence (P22460 whole entry): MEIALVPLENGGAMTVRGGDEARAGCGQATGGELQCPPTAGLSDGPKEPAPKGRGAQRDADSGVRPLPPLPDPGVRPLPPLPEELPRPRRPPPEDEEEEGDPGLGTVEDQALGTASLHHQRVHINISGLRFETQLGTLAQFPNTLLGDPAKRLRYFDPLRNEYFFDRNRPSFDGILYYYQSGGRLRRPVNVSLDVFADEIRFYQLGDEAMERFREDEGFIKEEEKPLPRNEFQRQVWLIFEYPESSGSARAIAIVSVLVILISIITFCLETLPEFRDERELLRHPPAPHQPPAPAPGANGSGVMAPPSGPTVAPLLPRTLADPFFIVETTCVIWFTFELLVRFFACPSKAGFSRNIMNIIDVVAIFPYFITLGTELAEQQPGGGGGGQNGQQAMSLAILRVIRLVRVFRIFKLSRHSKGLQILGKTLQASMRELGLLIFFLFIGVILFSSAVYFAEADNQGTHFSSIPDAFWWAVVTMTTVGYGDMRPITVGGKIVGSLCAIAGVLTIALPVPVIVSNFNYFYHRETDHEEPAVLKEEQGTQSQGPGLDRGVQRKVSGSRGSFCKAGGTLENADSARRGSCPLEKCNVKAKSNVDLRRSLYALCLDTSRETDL
Nature of the assay: Kv1.5 currents in Xenopus oocytes, two-microelectrode voltage clamp. The class given is cell-based.
Conditions: not given
The protocol:
Kv1.5 channels from humans were expressed in Xenopus oocytes. For this, oocytes from Xenopus laevis were first isolated and defolliculated. RNA encoding Kv1.5 synthesized in vitro was then injected into these oocytes. After Kv1.5 protein expression for 1-7days, Kv1.5 currents were measured on the oocytes using the two-microelectrode voltage clamp technique. The Kv1.5 channels were in this case as a rule activated using voltage jumps to 0 mV and 40 mV lasting 500 ms. The bath was rinsed with a solution of the following composition: NaCl 96 mM, KCl 2 mM, CaCl2 1.8 mM, MgCl2 1 mM, HEPES 5 mM (titrated with NaOH to pH 7.4). These experiments were carried out at room temperature. The following were employed for data acquisition and analysis: Genedamp amplifier (Axon Instruments, Foster City, USA) and MacLab D/A converter and software (AD Instruments, Castle Hill, Australia). The substances according to the invention were tested by adding them in different concentrations to the bath solution. The effects of the substances were calculated as the percentage inhibition of the Kv1.5 control current which was obtained when no substance was added to the solution. The data were then extrapolated using the Hill equation in order to determine the inhibitory concentration IC50 for the respective substances.
One may read the IC50 as the midpoint of a concentration-inhibition curve. Higher therefore signals weaker potency in that assay. Regarding `O=C(NCc1ccccc1-c1ccccc1C(=O)NC1CCCCC1)OCc1ccccc1` [6 b], 1.8 µM corresponded to half-maximal inhibition (IC50). Still for that read-out and setting: with `O=C(NCCc1ccccn1)c1ccccc1-c1ccccc1CNC(=S)Nc1ccccc1` [9 c] the figure was 2 µM.

On to `O=C(NCc1ccccc1-c1ccccc1C(=O)NCC(F)(F)F)OCc1ccccc1` [6 h], for which half-maximal inhibition (IC50) required 3 µM. Same read-out and setting: with `O=C(NCc1ccccc1-c1ccccc1C(=O)NCCc1ccccn1)OCCCC(F)(F)F` [1 i] the figure was 1.7 µM. `C[C@H](CC(=O)NCc1ccccc1-c1ccccc1C(=O)NCc1ccncc1)c1ccccc1` [18 f] gave an IC50 of 1.3 µM.

`CC(C)(C)COC(=O)NCc1ccccc1-c1ccccc1C(=O)NCCc1ccccc1` [2 i] yielded an IC50 of 3.3 µM. Still for that read-out and setting: with `CN(Cc1ccccc1)C(=O)c1ccccc1-c1ccccc1CNC(=O)OCc1ccccc1` [6 a] the figure was 4.4 µM; with `COc1ccc(CCC(=O)NCc2ccccc2-c2ccccc2C(=O)NCc2ccc(F)cc2F)cc1` [14 e], 0.8 µM. Turning to `CC[C@@H](C)OC(=O)NCc1ccccc1-c1ccccc1C(=O)NCc1cccc(C)n1` [18 ac], the IC50 was 10 µM. The same measure, in the same setting: for `COc1ccc(CC(=O)NCc2cccc(C)c2-c2c(C)cccc2C(=O)NCCC(C)C)cc1` [18 x] the value was 4.6 µM; for `O=C(NCCc1ccccc1)c1ccccc1-c1ccccc1CNS(=O)(=O)c1ccccc1` [3 d], 1.7 µM. Compound `COc1ccc(S(=O)(=O)NCc2ccccc2-c2ccccc2C(=O)N[C@@H](CC(C)C)C(=O)NCC(F)(F)F)cc1` [13 h] had a half-inhibitory concentration (IC50) of 1.4 µM. The same measure, in the same setting: for `CC(C)C(NC(=O)c1ccccc1-c1ccccc1CNC(=O)OCc1ccccc1)C(N)=O` (centres unmarked) [8 p] the value was 1.4 µM. Same read-out and setting: for `COc1ccc(CC(=O)NCc2ccccc2-c2ccccc2C(=O)NC(C)CC(C)C)cc1` (centres unmarked) [18 ab] the value was 1.1 µM. On the same count and under the same terms, with `O=C(NCc1ccccc1-c1ccccc1C(=O)NCCCC(F)(F)F)OCc1ccccc1` [8 s] the figure was 1 µM; with `COc1ccc(CC(=O)NCc2ccccc2-c2ccccc2C(=O)NCCc2ccccn2)cc1` [4 d], 1.8 µM.

Regarding `CN(C)c1ccc(CNC(=O)c2ccccc2-c2ccccc2CNC(=O)OCc2ccccc2)cc1` [18 ai], the IC50 was found to be 6.6 µM. On the same count and under the same terms, with `O=C(NCc1ccccc1-c1ccccc1C(=O)NCc1ccc(F)cc1F)OCc1ccc(F)cc1` [1 s] the figure was 1.7 µM. On the same count and under the same terms, for `O=C(NCc1ccccc1-c1ccccc1C(=O)NCCc1ccccn1)OCc1ccc(C(F)(F)F)cc1` [1 d] the value was 1 µM; for `O=C(NCc1ccccc1-c1ccccc1C(=O)NCc1nc2ccccc2[nH]1)OCc1ccccc1` [18 ah], 2.1 µM; for `C[C@H](O)CNC(=O)c1ccccc1-c1ccccc1CNC(=O)O[C@@H](C)c1ccccc1` [18 n], 0.4 µM.

The compound `COc1ccc(CC(=O)NCc2ccccc2-c2ccccc2C(=O)NCc2nc3ccccc3[nH]2)cc1` [18 af] showed an IC50 of 5.8 µM.

`CC(C)NC(=O)C(Cc1ccccn1)NC(=O)c1ccccc1-c1ccccc1CNC(=O)OCc1ccccc1` (centres unmarked) [13 i]: the IC50 came out at 1.2 µM. The same measure, in the same setting: for `CC(CC(=O)NCc1ccccc1-c1ccccc1C(=O)NCCc1ccccn1)c1ccccc1` (centres unmarked) [4 l] the value was 0.8 µM.

`C[C@H](CC(=O)NCc1ccccc1-c1ccccc1C(=O)NCC1CC1)c1ccccc1` [18 b]: the midpoint of inhibition, the IC50, lay at 0.4 µM. `O=C(NCc1ccccc1-c1ccccc1C(=O)NCCc1ccccc1)OCc1ccccc1` [1 b] displayed a half-maximal inhibitory concentration (IC50) of 3.3 µM. `COC(=O)C(CC(C)C)NC(=O)c1ccccc1-c1ccccc1CNC(=O)OCc1ccccc1` (centres unmarked) [8 r] showed a half-inhibitory concentration (IC50) of 1 µM.

The compound `CC(C)NC(=O)CNC(=O)c1ccccc1-c1ccccc1CNC(=O)OCc1ccccc1` [8 y] yielded an IC50 of 2.8 µM. The compound `COC(=O)C(Cc1ccccn1)NC(=O)c1ccccc1-c1ccccc1CNC(=O)OC(C)(C)C` (centres unmarked) [8 n] came in with an IC50 of 3.7 µM.

`O=C(CCc1ccc(F)cc1)NCc1ccccc1-c1ccccc1C(=O)NCc1ccc(F)cc1F` [14 b] came in with an IC50 of 2.7 µM. Still for that read-out and setting: for `O=C(NCc1ccccc1-c1ccccc1C(=O)NCCc1ccncc1)OCc1ccccc1` [8 ab] the value was 1.2 µM; for `CC(C)(C)OC(=O)NCc1ccccc1-c1ccccc1C(=O)N[C@@H](CO)Cc1ccccc1` [8 m], 5.2 µM; for `CCN(Cc1ccncc1)C(=O)c1ccccc1-c1ccccc1CNC(=O)OCc1ccccc1` [8 q], 7.3 µM.

In turn, `Cc1cccc(CNC(=O)c2ccccc2-c2ccccc2CNC(=O)C[C@@H](C)c2ccc([N+](=O)[O-])cc2)n1` [18 j] showed a half-maximal inhibitory concentration (IC50) of 0.7 µM. Same read-out and setting: for `CC(C)(C)OC(=O)NCc1ccccc1-c1ccccc1C(=O)NCCc1ccccn1` [8 o] the value was 8.4 µM; for `O=C(NCCc1ccccn1)c1ccccc1-c1ccccc1CNC(=S)NCc1ccccc1` [9 f], 2.2 µM. On the same count and under the same terms, for `O=C(NCc1ccccc1)NCc1ccccc1-c1ccccc1C(=O)NCCc1ccccn1` [5 c] the value was 7.8 µM; for `CN(CCc1ccccn1)C(=O)c1ccccc1-c1ccccc1CNC(=O)OCc1ccccc1` [6 d], 3.1 µM; for `CC(OC(=O)NCc1ccccc1-c1ccccc1C(=O)NCCc1ccccn1)c1ccccc1C(F)(F)F` (centres unmarked) [1 l], 1.4 µM. Same read-out and setting: for `COC(=O)C(Cc1ccccn1)NC(=O)c1ccccc1-c1ccccc1CNC(=O)OCc1ccccc1` (centres unmarked) [8 z] the value was 1.6 µM; for `O=C(NCc1ccccc1-c1ccccc1C(=O)NCc1ccccn1)Nc1ccc(F)cc1F` [11 n], 5.9 µM. As to `O=C(NCc1ccccc1-c1ccccc1C(=O)NCc1ccc(F)cc1F)OCCCC(F)(F)F` [1 t], the IC50 was 1.3 µM.

Take `CC(OC(=O)NCc1ccccc1-c1ccccc1C(=O)NCCc1ccccn1)c1cccc(C(F)(F)F)c1` (centres unmarked) [1 m]: half-maximal inhibition (IC50) required 0.7 µM.

On to `Cc1cccc(S(=O)(=O)NCc2ccccc2-c2ccccc2C(=O)N[C@@H](Cc2ccccc2)C(N)=O)c1` [12 f], for which half-maximal inhibition (IC50) was put at 11.3 µM. The same measure, in the same setting: with `CC(C)(C)OC(=O)NCc1ccccc1-c1ccccc1C(=O)Nc1ccc(F)cc1` [8 k] the figure was 3.1 µM; with `C[C@H](OC(=O)NCc1ccccc1-c1ccccc1C(=O)NCCc1cccnc1)c1ccccc1` [18 s], 0.9 µM; with `O=C(NCc1ccccc1-c1ccccc1C(=O)NCCc1cccc[n+]1[O-])OCc1ccccc1` [7 a], about 6 µM. Still for that read-out and setting: for `CCC[C@H](OC(=O)NCc1ccccc1-c1ccccc1C(=O)NCCc1ccccn1)c1ccccc1` [1 r] the value was 0.8 µM.

The compound `COc1ccc(C(=O)NCc2ccccc2-c2ccccc2C(=O)N[C@@H](CC(C)C)C(=O)NCC(F)(F)F)cc1` [13 f] displayed an IC50 of 3.4 µM. Still for that read-out and setting: for `COc1ccc(NC(=O)c2ccccc2-c2ccccc2CNC(=O)CCc2ccccc2)cc1` [4 h] the value was 1.8 µM; for `CC(C)C[C@H](NC(=O)c1ccccc1-c1ccccc1CNC(=O)CCc1ccccc1)C(=O)NCC(F)(F)F` [13 g], 1.1 µM. Turning to `CC(OC(=O)NCc1ccccc1-c1ccccc1C(=O)NCCc1ccccn1)c1c(F)cccc1F` (centres unmarked) [1 n], the IC50 was found to be 1.4 µM. The same measure, in the same setting: for `CC(C)C[C@@H](NC(=O)c1ccccc1-c1ccccc1CNC(=O)OCc1ccccc1)C(N)=O` [8 ac] the value was 1.1 µM. The same measure, in the same setting: for `COCCCNC(=O)c1ccccc1-c1ccccc1CNC(=O)OCc1ccccc1` [18 aa] the value was 0.4 µM.

The same assay, now with this note: human Kv1.5 expressed in Xenopus laevis oocytes; voltage jumps to 0 mV and 40 mV, 500 ms; room temperature; inhibition of Kv1.5 control current, Hill equation.
The compound `O=C(NCc1ccccn1)c1ccccc1-c1ccccc1CNC(=S)NCCc1ccccc1` [9 g] had an IC50 of 2.2 µM. On to `O=C(NCc1ccccc1-c1ccccc1C(=O)NCCc1ccccn1)Nc1ccc(Cl)cc1` [11 l], for which the IC50 is 2.7 µM.
